These results are taken from paper PMC7751916, “Synthesis and bioactivities of 1-(4-hydroxyphenyl)-2-((heteroaryl)thio)ethanones as carbonic anhydrase I, II and acetylcholinesterase inhibitors” (Turkish Journal of Chemistry, 2020).

Usually IC50 stands for the midpoint of a concentration-inhibition curve. A word on the Ki: it is a dissociation constant, usually derived from enzyme kinetics or from competition with a known ligand. High values mean a looser hold on the target, low ones a stronger hold on the target.

One assay has as its target hCA II (Homo sapiens, UniProt P00918). Nature of the assay: CAs inhibition assay (esterase activity, p-nitrophenyl acetate). Type of assay: biochemical. The method, then: Human CA isoforms (hCAI and hCAII) were purified by the Sepharose - 4B - L - tyrosine - sulfanilamide affinity segregation method as reported. Bradford technique was used to measure protein concentrations at 595 nm. Inhibitory effects of the compounds were investigated by measuring the esterase activity according to Verpoorte et al. as described in previous. The hCA activity was determined by measuring the conversion of thep-nitrophenyl acetate substrate to p -nitro phenolate at 348 nm by the spectrophotometer (UV - VIS Spectrophotometer, UVmini-1240, Shimadzu Corporation, Kyoto, Japan). Acetazolamide (AZA) was used as a control drug. Lineweaver–Burk plot was used to calculate inhibition constants (Ki) of the compounds [33]. All chemicals were purchased from Sigma-Aldrich Chemie GmbH.

The target in a further assay is hCA I (Homo sapiens, UniProt P00915). The description is as above. Type of assay: biochemical. From the text: Human CA isoforms (hCAI and hCAII) were purified by the Sepharose - 4B - L - tyrosine - sulfanilamide affinity segregation method as reported. […] Inhibitory effects of the compounds were investigated by measuring the esterase activity according to Verpoorte et al. as described in previous. […] All chemicals were purchased from Sigma-Aldrich Chemie GmbH.
hCA I, sequence (P00915 whole entry, canonical isoform): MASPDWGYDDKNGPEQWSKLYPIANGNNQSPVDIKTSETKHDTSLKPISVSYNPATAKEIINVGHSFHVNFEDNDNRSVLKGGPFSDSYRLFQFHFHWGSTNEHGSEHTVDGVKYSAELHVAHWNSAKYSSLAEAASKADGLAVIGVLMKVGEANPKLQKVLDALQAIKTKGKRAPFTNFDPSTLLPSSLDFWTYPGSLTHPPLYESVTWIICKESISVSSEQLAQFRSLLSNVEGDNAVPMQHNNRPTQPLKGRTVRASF

For `Cc1nnc(SCC(=O)c2ccc(O)cc2)s1` [Compound 4, 1-(4-Hydroxyphenyl)-2-((5-methyl-1,3,4-thiadiazol-2-yl)thio)ethanone], the IC50 on hCA II was 41.7 nM; against hCA I, 48.1 nM. For the same compound, the figures for the inhibitory constant (Ki) on hCA II and on hCA I were 16.9 ± 3.99 nM and 13.8 ± 2.47 nM, respectively.

At hCA II, `O=C(CSc1nc2ccccc2o1)c1ccc(O)cc1` [Compound 2, 2-(Benzo[d]oxazol-2-ylthio)-1-(4-hydroxyphenyl)ethanone] displayed a half-maximal inhibitory concentration (IC50) of 43.6 nM and a Ki of 23.4 ± 7.13 nM. Also, on hCA I, 32.8 nM corresponded to half-maximal inhibition (IC50) and the Ki is 8.61 ± 0.9 nM. For the same compound, at hCA I (based on Ki values), the “fold more potent inhibitor against hCAI than reference AZA” value is given as 2.5 fold.

With `Cn1nnnc1SCC(=O)c1ccc(O)cc1` [Compound 6, 1-(4-Hydroxyphenyl)-2-((1-methyl-1 H -tetrazol-5-yl)thio)ethanone], at hCA II, half-maximal inhibition (IC50) required 57.3 nM and the Ki was found to be 27.4 ± 11.8 nM. Further, on hCA I, 62.5 nM corresponded to half-maximal inhibition (IC50) and affinity was put at a Ki of 14.4 ± 3.71 nM.

As to `Cn1cnnc1SCC(=O)c1ccc(O)cc1` [Compound 5, 1-(4-Hydroxyphenyl)-2-((4-methyl-4 H -1,2,4-triazol-3-yl)thio)ethanone], the figures for the concentration for half-maximal inhibition (IC50) against hCA II and against hCA I were 34 nM and 65.6 nM, respectively. For the same compound, the results for the Ki at hCA II and on hCA I were 14.3 ± 5.1 nM and 42.6 ± 7.59 nM, respectively.

As for `Cn1ccnc1SCC(=O)c1ccc(O)cc1` [Compound 3, 1-(4-Hydroxyphenyl)-2-((1-methyl-1H-imidazol-2-yl)thio)ethanone], the IC50 on hCA II was found to be 39.8 nM; on hCA I it was 35.2 nM. Besides, the values for the Ki at hCA II and at hCA I were 31.6 ± 3.29 nM and 17.8 ± 2.08 nM, respectively.

On to `O=C(CSc1nc2ccccc2s1)c1ccc(O)cc1` [Compound 1, 2-(Benzo[d]thiazol-2-ylthio)-1-(4-hydroxyphenyl)ethanone], for which, at hCA II, the concentration for half-maximal inhibition (IC50) is 29.4 nM and the Ki is 8.76 ± 0.84 nM. On hCA II (based on Ki values), the “fold more potent against hCAII than reference AZA” value came out at 2.0 fold. Besides, at hCA I, the half-inhibitory concentration (IC50) is 35.4 nM and the Ki worked out at 14.6 ± 2.06 nM.
